According to patent publication US20100168112A1, “2-Substituted and 4-substituted aryl nitrone compounds” (RENOVIS, INC., priority 2004, published 2010):

Key:
[1] = system: 1K1C rats; assay: Kidney ischemia-reperfusion injury, one-kidney one-clip (1K1C) model, fractional excretion of sodium; assay type: in vivo
Method: Rats were individually housed in a modified cage that was equipped with a raised mesh bottom to separate the fecal product from urine. Before the test, all animals were withheld from food and water overnight. In the morning of the test, normal saline (i.e., 0.9% sodium chloride) was given via oral gavage at […] (Lipschitz, W. L. Hadidian, Z. & Kerpcar, A.: Bioassay of diuretics., J. Pharmacol. Exp. Ther., 79: 97-110, 1943). Samples of blood and urine were collected (standard procedures) at time points (1 and/or 5 hrs after fluid intake) from animals, centrifuged, and kept at 4 degrees until analysis for factors that reflect renal functions. Sodium and creatinine levels were determined by Quality Clinical Labs, Inc. (Mountain View, Calif.). Sodium concentrations were determined by ion selective electrode (standard procedures). Creatinine levels were determined by the alkaline picrated (Jaffe) reaction as described (Liobat-Estelles, M., Sevillano-Cabeja, A. & Campines-Falco, P.: Kinetic chemometric studies of the determination of creatinine using the Jaffe reaction. Part I: kinetics of the reaction; analytical conclusion. Analyst, 11: 597-602, 1989). Fractional excretion of sodium (FENa+), a parameter for ion-handling by the kidney, was calculated, using the following equation: =UNa×Pcr/PNa×Ucr, where UNa is the concentration of sodium in urine; Pcr is the plasma concentration of creatinine; PNa is the […]; and Ucr is the concentration of creatinine in the urine.
After the data for the calculation of basal levels of FENa+ was obtained (Table 16), rats were anesthetized with pentobarbital (65 mg/kg, i.p.). The abdominal region was shaved with a safety razor and sterilized with povidone iodine solution. A midline incision was made and the right kidney was exposed. The right renal pedicle and right urether were both ligated twice with 4-0 sutures and cut between the ligations. The right kidney was then removed. 7 days later, these rats, after another overnight food-water deprivation, were randomly assigned into 3 groups and orally given either Compound 62 (50 mg/kg, at the volume of 1 ml/kg,p.o.) or its vehicle (i.e., 96% of 0.5% CMC and 4 of 20% Tween 80, at the volume of 1 ml/kg, p.o.) 1 hr before kidney ischemia was produced. Positive controls were performed using quercetin (30 mg/kg, i.p.) given 2 hrs before ischemia (Kahraman, A., Erkasap, N., Serteser, M. & Koken, T.: Protective effect of quercetin on renal ischemia/reperfusion injury in rats. J. Nephrol., 16: 219-224, 2003). Animals were then anesthetized and had their left kidneys exposed after opening of their abdominal cavities. A non-traumatic vascular clamp was applied to the left renal pedicle (the ischemia phase), which was released 45 min later (the reperfusion phase). Lipschitz test was then conducted to measure ion-handling capabilities. Normal saline was orally administered at […] as soon as the vascular clamp was released. 60- and 300-min after reperfusion, plasma and urine samples were obtained.

[2] = system: STZ-diabetic rats; assay: Diabetic neuropathy, mechanical hyperalgesia (paw-withdrawal reflex test, Basile Analgesymeter); assay type: in vivo, Sprague Dawley (SD) rats; conditions: p.o., bid; for PWT (paw-withdrawal threshold), mechanical hyperalgesia: STZ-diabetic rats, mean ± SEM
Description: In this example, the ability of Compound 62 to produce beneficial effects in protecting against and/or reversing the pathology of neuropathy in a streptozotocin (STZ)-induced rat model of diabetes. To evaluate if chronic treatment with Compound 62 protects the diabetic animals from developing neuropathy, they were examined for mechanical hyperalgesia responses.
Adult male Sprague Dawley (SD) rats weighing 250-300 gm (Charles River Laboratories, San Diego, Calif.) were used. The animal room was lighted artificially at a 12-hr light-dark cycle (from 7:00 A.M. to 7:00 P.M.) with water and food supply ad libitum. Animals were allocated randomly into groups. Forty-nine (49) days prior to the behavioral tests, rats received a bolus injection of STZ (75 mg/kg, i.v.). STZ was dissolved in 0.1 M sodium citrate buffer, pH 4.5 solution, at the concentration of 75 mg/ml. To ensure the development of hyperglycemia, their non-fasted levels of glucose in whole blood, obtained via tail veins, were evaluated, using a glocometer (Accucheck®, Roche Diagnostics, Palo Alto, Calif.), once a week. Animals failing to show hyperglycemic conditions (i.e., whole blood glucose>120 mg/dL) were removed from the study. Diabetic rats were treated orally with Compound 62 (5 mg/kg or 25 mg/kg, both bid) or vehicle (1 ml/kg, bid), starting the date of STZ-injection. Compound 62 was dissolved in vehicle, which is composed of 96% of 0.5% CMC and 4% of 10% Tween 80. As a control, a group of naive rats received oral Compound 62 (25 mg/kg, bid) or vehicle (1 ml/kg, bid) treatment. Each group had >12 rats. Time-effect curves of the STZ diabetic rats (Compound 62 vs. Vehicle) were compared with each other, while curves of the naive rats (Compound 62 vs. Vehicle) were compared with each other. The comparisons were conducted, using two-way (group×time) repeated measures analysis of variance (ANOVA) followed by Fishers post-hoc test. A probability value of p<0.05 was considered as statistically significant.
Before the experiments, these rats were trained in the paw-withdrawal reflex test, using a Basile Analgesymeter (Ugo Basile, Biological Research Apparatus, Comerio VA, Italy), which applies a linearly increasing mechanical force to the dorsum of the rats hind paw. The training of mechanical nociceptive flexion reflex response was performed on lightly restrained rats, at 5-min intervals for 1 hr each day for a period of 5 days. On the day of the experiment, paw-withdrawal thresholds (PWT) (i.e., mechanical force that causes the animal to withdraw its paw from the stimulus) were measured at 5-min intervals for 1 hr. The mean was obtained from the average of the last 6 PWT readings. […]

[3] = 1K1C rats, Compound 62 50 mg/kg p.o. 1 hr before ischemia, quercetin 30 mg/kg i.p. 2 hrs before, 45 min ischemia, mean ± SEM

CC(C)(C)/[N+]([O-])=C/c1ccc(S(C)(=O)=O)cc1 [Compound 62, N-tert-Butyl-C-[4-(methanesulfonyl)phenyl]nitrone]
effect on FENa+ compared with the vehicle treatment group (in words) ([1]; 1K1C rats, 50 mg/kg p.o., acutely dosed): significantly enhanced FENa+ 5-hr after reperfusion
1-hr post-ischemic FENa+ (%) [1, 3]: 0.52 ± 0.29%
5-hr post-ischemic FENa+ (%) [1, 3]: 2.52 ± 0.5%
FENa+ (%) pre-surgery (basal) levels ([1]; rats before 1K1C modeling, group baseline, mean ± SEM): 1.71 ± 0.36%
significantly reversed mechanical hyperalgesia compared with vehicle-treated STZ-diabetic rats (in words) ([2]; 5 mg/kg, x49 d): not
reversal of mechanical hyperalgesia compared with vehicle-treated STZ-diabetic rats (in words) ([2]; 25 mg/kg, x49 d): significantly reversed mechanical hyperalgesia
PWT (paw-withdrawal threshold), mechanical hyperalgesia ([2]; 5 mg/kg, x49 d (low dose, 62L)): 70.29 ± 3.18 GRAMS
PWT (paw-withdrawal threshold), mechanical hyperalgesia ([2]; 25 mg/kg, x49 d (high dose, 62H)): 86.86 ± 4.79 GRAMS
